According to patent publication US20140228407A1, “TETRA-PYRIDINE COMPOUNDS AND COMPOSITION FOR PROTECTING CELLS, TISSUES AND ORGANS AGAINST ISCHEMIA-REPERFUSION INJURY” (YISSUM RESEARCH DEVELOPMENT COMPANY OF THE HEBREW …, priority 2011, published 2014):
Marks after values point to notes of the source that are not given here.

Columns and labels:
[1] = test system: neonate rat cardiomyocyte cells; experiment: Hypoxia/ischemia in neonatal rat cardiomyocyte cultures, LDH release; format: cell-based; details: 30, 100 and 300 nm compound vs 1 μM TPEN; 150 min ischemia then reoxygenation
Experimental: Rat hearts (1-2 days old) were sterilely removed and bathed three times in Ca^2+- and Mg^2+-free PBS to remove excess blood cells. The hearts were minced to small fragments and then agitated in a proteolytic enzyme-RDB solution prepared from a fig tree extract as described previously (Brik et al., 1990; Shneyvays et al., 2001). The RDB was diluted 1:200 in PBS at 25° C. for a few cycles of 10 min each. The supernatant suspension containing dissociated cells, to which medium containing 10% horse serum was added, was centrifuged at 500 g for 5 min. After centrifugation, the supernatant phase was discarded, and cells were resuspended in Dulbecco's modified Eagle medium supplemented with 10% heat-inactivated horse serum and 0.5% chick embryo extract. Cell suspensions were diluted to 1×10^6 cells/ml, and 300 μl was placed in 24 well plates (4 plates) collagen/gelatin-coated plastic culture dishes. Cultures were incubated in a humidified atmosphere of 5% CO2 and 95% air at 37° C. […] The growth medium was replaced every 3 days. The experiments were performed in vitro on these cardiomyocyte cultures after 3 to 5 days. […]
LDH activity was determined using LDH-L kit (Thermo Trace, Melbourne, Australia) within the cardiac cell medium (PBS). […] LDH enzymatic activity was measured in a spectrophotometer at a wavelength of 340 nm at 30° C. […]

[2] = test system: PC12 cells; experiment: PC12 ischemic model (oxygen and glucose deprivation), cell death by LDH measurement; format: cell-based; details: for protection percentile: protection from cell death, FIG. 6B: identical for both compounds
Experimental: PC12 cells were grown in 25 cm^2 flasks in Dulbecco's modified Eagles Medium (DMEM), supplemented with 7% fetal bovine serum (FBS), 7% horse serum, […] penicillin and 100 μg/ml streptomycin. Cells were grown in humidified incubator 5% CO2, 95% air at 37° C. The medium was replaced every 2 days, and upon 70% confluence, the cells were counted and seeded for the ischemia experiments.
Approximately 1×10^6 PC12 cells/well were cultured and exposed to ischemia (oxygen and glucose deprivation=OGD) for 4.5 hr. Prior to the exposure, the growth medium was replaced with glucose-free DMEM (1 ml/well). Ischemia was performed in a closed chamber by replacement of air with 95% nitrogen/5% CO2.
Ischemic stress injury was characterized by lactate dehydrogenase (LDH) released from cells. After 4.5 hr of ischemia, a 50 μl sample of supernatant was taken from each well for LDH measurement. At the end of the ischemic insult (after 4.5 hr), glucose (at final concentration of 4.5 g/L by adding 10 μl from stock solution of 450 mg/ml per well (1 ml)) was added to the plates which underwent ischemia. The plates were then transferred to a humidified incubator and exposed to 95% air/5% CO2 at 37° C. for additional 18 hr of reoxygenation. DMEM supernatant samples (25 μl/well) were collected from each well for LDH measurements. The samples were centrifuged at 3500 rpm for 5 min, and 5 μl aliquots of supernatant was taken for LDH measurement.
For every experiment, a duplicate plate was prepared as a control study under normoxia. Cells were kept in a humidified incubator (5% CO2 and 95% air at 37° C.) in cell culture complete medium at a volume of 1 ml for 18 hr, and the same compounds were added with the same concentrations. Supernatant was collected for LDH measurement as indicated in the LDH activity measurement section below. Afterwards (at the end of the reoxygenation phase), the plates were frozen (at −70° C. for 30 min) and thawed once. 25 μl/well sample was collected and the samples were centrifuged at 3500 rpm for 5 min and then taken for LDH measurement (total).
LDH activity was determined using LDH-L kit (Pointe Scientific Inc., Michigan, USA) in the PC12 cell medium. Medium samples (5 μl) were collected at the end of the ischemic insult (after 4.5 hr) and after the reoxygenation period. In parallel, samples from the plates exposed to normoxia were collected. LDH enzymatic activity was measured in a spectrophotometer at a wavelength of 340 nm at 37° C. Data analysis was performed as follows: [OD (cycle 3)−OD (cycle 1)experiment]−[OD(3)−OD(1) control])/[OD(3)−OD(1) total]×100, and presented as percentage of total cell death.
One day before the experiment, 12-well plates were coated with 200 μg/ml type I rat tail collagen (BD Biosciences, Bedford, Mass.) and were further sterilized under UV. 1×10^6 PC12 undifferentiated cells/well were seeded on the plates and allowed to adhere overnight under regular conditions (DMEM medium high glucose 4.5 mg/ml, 5% CO2 and 95% air at 37° C.). Each experiment included 4 plates, two for normoxia and two for ischemia which underwent the same following treatment for all 4 plates.
A half hour before the onset of the ischemic insult, the antioxidant Tempol (4-hydroxy-2,2,6,6-tetramethylpiperidine-1-oxyl) (Sigma, St. Louis, Mo.) at a concentration of 0.5 mM (10 μl/well taken from a 8.6 mg/ml stock solution) or TPEN at a concentration of 3 μM and 10 μM were added to the plates. Before the experiments, the medium was replaced with DMEM glucose free medium at 1 ml volume/well. TPEN or 10 μl Tempol were again added to the appropriate wells and was maintained throughout all experiments.
Thereafter, the plates were introduced into a device inducing ischemia atmosphere with 95% nitrogen and 5% CO2 for 4.5 hr. Oxygen level was monitored online by a digital oxygen monitor showing up to 1%. At the end of OGD, 25 μl from each well was collected into 0.5 ml tubes for the LDH assay. […]

[3] = test system: model of ischemia/reperfusion in the CD rat; experiment: Rat model of ischemia/reperfusion, cardiovascular monitoring (blood pressure, heart rate; Phase B); format: in vivo; details: positive control 5000 IU/kg bolus; within 5-10 minutes of reperfusion
Experimental: The animals in Phase B were monitored for selected cardiovascular endpoints from at least 15 minutes prior to acute myocardial infarction until at approximately 1 hour post reperfusion. Blood samples for the evaluation of Troponin I were collected from all surviving Phase B animals prior to coronary artery occlusion and at termination. At study termination, the Phase B animals were submitted to necropsy for limited necropsy examinations and infarct analysis.
(§1) In Phase B, Compound #6 was administered once on Day 0 via intravenous infusion at dose levels of 0.2 and 2 mg/kg. The doses were administered at a dose volume of 1 mL/kg (0.05 [2 mg/kg] or 0.033 [0.2 mg/kg] mL/kg/minute). Two control groups received the vehicle (saline) or the vehicle for Compound #6 (10% (w/v) 2-hydroxypropyl-beta-cyclodextrin and 100 mM sodium chloride in deionized water) in the same manner as the 2 mg/kg treated group. The vehicles and 2 mg/kg Compound #6 were administered intravenously via a slow infusion starting 3 to 14 minutes prior to reperfusion and continuing for 20 minutes to 20 minutes and 32 seconds, which was approximately 6 to 17 minutes after reperfusion (depending on the infusion start time). The 0.2 mg/kg Compound #6 was administered intravenously via a slow infusion starting 10 minutes prior to reperfusion and continuing for 30 minutes to 30 minutes and 30 seconds, which was approximately 20 minutes after reperfusion. The positive control article, Erythropoietin, was administered at 5000 IU/kg via a bolus intravenous injection. The positive control article dose was administered at a dose volume of 2.5 mL/kg. The positive control was administered via a 3 to 60 second injection at 5 minutes prior to reperfusion.
In Phase B, animals were anesthetized for monitoring of selected cardiovascular parameters. For experimentation, the blood pressure catheter implanted in the carotid artery was attached to an external transducer and data acquisition was started. Blood pressure (systolic, diastolic, and mean arterial) and heart rate (derived from blood pressure) were monitored from at least 15 minutes prior to acute myocardial infarction (AMI) until at least 1 hour after reperfusion. Individual animal cardiovascular data tables are not reported but are maintained in the study file.

[4] = test system: model of ischemia/reperfusion in the CD rat; experiment: Rat model of ischemia/reperfusion, infarct analysis (Phase B); format: in vivo; details: positive control 5000 IU/kg bolus intravenous injection
Experimental: This study was conducted to evaluate the effects of the Compound #6 on cardiac function, infarct size, and Troponin I levels in a model of ischemia/reperfusion in the CD® (CR1CD® (SD)) rat. Phase A was conducted for toxicity evaluation purposes. In Phase B (the efficacy phase), two treatment groups of eight male rats were administered Compound #6 at dose levels of 0.2 and 2 mg/kg via intravenous infusion following myocardial infarction. The 2 mg/kg dose of Compound #6 was administered intravenously via a slow infusion starting 3 to 14 minutes prior to reperfusion and continuing for 20 minutes to 20 minutes and 32 seconds, which was approximately 6 to 17 minutes after reperfusion (depending on the infusion start time). The 0.2 mg/kg dose of Compound #6 was administered intravenously via a slow infusion starting 10 minutes prior to reperfusion and continuing for 30 minutes to 30 minutes and 30 seconds, which was approximately 20 minutes after reperfusion.
The animals were placed on mechanical ventilation and […]. Once anesthetized, the animal was placed in a right lateral recumbency, an arterial catheter or polyethylene tube was placed in the carotid artery for monitoring blood pressure and a thoracotomy was performed. The left coronary artery (LCA) was identified. A ligature was placed around the LCA and the vessel was ligated. The LCA was maintained occluded for 29 to 43 minutes. Occlusion of the vessel was verified via blanching of the heart and via ST interval changes. At the end of the occlusion period, the knot was loosened leaving the ligature in place, and the vessel was allowed to reperfuse for 3 hours 27 minutes to 4 hours 51 minutes. Following infarct, a chest tube was placed, the deep and superficial muscle layers were sutured at the surgical incision, and the skin was closed with staples. The chest tube was removed after spontaneous respiration was established. In Phase A, the animals were recovered from anesthesia and evaluated for 4 days. In Phase B, animals were maintained under anesthesia for 3 hours 27 minutes to 4 hours 51 minutes prior to being submitted to necropsy.
as §1
After LAD reperfusion (4 hours), the animals were euthanized by an intraperitoneal injection of sodium pentobarbital followed by exsanguination via severing the abdominal vena cava. The heart was flushed with heparinized Lactated Ringers Solution (LRS) until clear of blood and the LAD was tied off using the same ligature used to occlude the vessel and Evan Blue dye was injected. The heart was weighed and breadloafed (4-5 sections per animal). […]

Molecule: c1c[nH]c(CN(CCN(Cc2ncc[nH]2)Cc2ncc[nH]2)Cc2ncc[nH]2)n1 [Compound #4]
- protective effect against hypoxic insult (LDH release) compared with TPEN, FIG. 1A [1]: only slightly more effective than TPEN

Molecule: c1ccc(CN(CCN(Cc2ccccn2)Cc2ccccn2)Cc2ccccn2)nc1 [TPEN, N,N,N′,N′-tetrakis-(2-pyridylmethyl)-ethylenediamine, reference compound]
- reducing death of PC12 cells subjected to ischemia (LDH), FIG. 2 ([2]; 10 μM, 4.5 hours ischemia): effective
- reducing death of PC12 cells, comparison vs. Tempol, FIG. 2 ([2]; TPEN 10 μM vs Tempol 0.5 mM, 4.5 hours ischemia): significantly effective vs. Tempol
- protection percentile: protection from cell death, FIG. 6B ([2]; first of two selected concentrations (not given)): 7%
- protection percentile: protection from cell death, FIG. 6B ([2]; second of two selected concentrations (not given)): 19%

Molecule: EPO: positive control article, erythropoietin [reference compound]
- mean arterial pressures after reperfusion [3]: increased
- cardiac damage compared to saline control animals, in words [4]: significantly less cardiac damage
- Infarct/AAR (%) Mean ([4]; 4 hour reperfusion, rat): 22^b %
- Infarct/LV (%) Mean ([4]; rat): 8%
